Source: patent US4398937A, “Selective algaecides for control of cyanochloronta” (The University of Southern Mississippi, priority 1981, dated 1983)

Key:
zooplankton = assay: Field Experiment III, pond, zooplankton; assay type: in vivo; settings: 2 ppm on 6/9/81
Method: (§1) In Field Experiment III, a small two acre pond was monitored for a complete year for plankton organisms as before. Oscillatoria and Microcystis were usually the prevalent blue-green algae. On 6/9/81 the pond was experiencing a bloom consisting completely of Oscillatoria. Channel catfish from the ponds had the characteristic earthy, musty taste and odor of 4 and 4 respectively on the 0 to 5 scale. The pond was treated on this date with 2 ppm potassium ricinoleate, one of the selective algaecides, as before.

blue-green algae [1] = assay: Field Experiment I, catfish pond, blue-green algae; assay type: in vivo, blue-green algae (mainly Microcystis sp.); settings: 10 ppm
Method: (§2) 1, 1980, to Mar. 19, 1981.
(§3) On July 30, 1980, most ponds had numbers of blue-green algae exceeding 2×10^6 cells/liter. These algae were predominantly Oscillatoria,Microcystis and Anacystis with smaller numbers of Nostoc, Anabaena and Lyngbya. The experimental pond had 1.2×10^6 cells/liter composed mainly of Microcystis sp. Large numbers of copepods and rotifers were present. On July 30, the pond was treated with 10 ppm potassium ricinoleate by distributing a 30% aqueous solution evenly through the water column by pump from a small boat. […] This is further substantiated by the dry weights and chlorophyll a levels.

Haematococcus = assay: Selective effect on algae in test tubes (Table V), Haematococcus; assay type: cell-based; settings: for cells/ml: 13 days after innoculation, average of 3 samples
Method: (§4) Another laboratory experiment was run to further substantiate the selective effect of one of the algaecides, potassium ricinoleate. Two species of blue-green algae, Lyngbya and Cylindrospermum, and three species of green algae, Chlorella, Haematococcus and Stigeoclonium and Tribonema, a yellow-green alga of the division Chrysophycophyta, were treated as follows: Twenty ml test tubes of sterile BBM culture solution were innoculated with each alga. All species of algae were evaluated with three groups, control, 2.5 ppm algaecide and 7.5 ppm algaecide. Each group was run with triplicate samples.
(§5) Controls were counted 6 days after innoculation, algaecide was added to the treatment groups seven days after innoculation and all test tubes were counted thirteen days after innoculation. The results are shown in Table V. After seven days, there was a 31% reduction in the Lyngbya cultures at 2.5 ppm algaecide and a 40% reduction at 7.5 ppm. After seven days, there was a 60% reduction in Cylindrospermum cultures at 2.5 ppm algaecide and a 72% reduction at 7.5 ppm. […] After thirteen days, there was a 55% reduction in numbers at both 2.5 ppm and 7.5 ppm. After twenty days there was a 27% reduction at both concentrations. […] They are, like blue-green algae, often associated with taste and odor problems.

bluegill fingerlings = assay: Toxicity to bluegill fingerlings; assay type: in vivo; settings: 5, 10, 15, 20, 30 and 35 ppm
Method: An additional experiment was conducted on live bluegill fingerlings at 5, 10, 15, 20, 30 and 35 ppm of the algaecide.

Tribonema = assay: Selective effect on algae in test tubes (Table V), Tribonema; assay type: cell-based; settings: for cells/ml: average of 3 samples
Method: as §4, §5

blue-green algae [2] = assay: Field Experiment II, catfish pond, blue-green algae; assay type: in vivo, blue-green algae (Oscillatoria and Microcystis); settings: 2 ppm
Rhizochrysis = assay: Sewage treatment test 1, Rhizochrysis; settings: six days after treatment
Method: Two experiments were performed on sewage to further illustrate the utility of these algaecides. In the first experiment, sewage containing mostly green algae was treated with relatively high concentrations of potassium ricinoleate.

Cylindrospermum = assay: Selective effect on algae in test tubes (Table V), Cylindrospermum; assay type: cell-based; settings: for cells/ml: 13 days after innoculation, average of 3 samples
Method: as §4, §5

Lyngbya = assay: Selective effect on algae in test tubes (Table V), Lyngbya; assay type: cell-based; settings: for cells/ml: 13 days after innoculation, average of 3 samples
Method: as §4, §5

Chlorophyll a = assay: Field Experiment I, chlorophyll a; assay type: in vivo; settings: 10 ppm
Method: as §2, §3

green algae = assay: Field Experiment III, pond, green algae; assay type: in vivo; settings: 2 ppm on 6/9/81
Method: as §1

blue-green algae [3] = assay: Field Experiment III, pond, blue-green algae; assay type: in vivo, blue-green algae (Oscillatoria and Microcystis); settings: 2 ppm on 6/9/81
Method: as §1

Channel catfish = assay: Field Experiment III, taste and odor of channel catfish; assay type: in vivo; settings: 2 ppm on 6/9/81; June 22
Method: as §1

[4] = 7/31 post-treatment (treated July 30, 1980)
[5] = 168 h, read-out: reduction in cultures

CCCCCC[C@@H](O)C/C=C\CCCCCCCC(=O)[O-].[K+]
Zoo #'s/liter (zooplankton; 6/10/81): 2251 #'s/liter
Zoo #'s/liter (zooplankton; 6/12/81): 4948 #'s/liter
Zoo #'s/liter (zooplankton; 6/22/81): 4541 #'s/liter
Cells/Liter of bluegreen algae (blue-green algae [1]; [4]): 3.2 × 10^5 Cells/Liter
Cells/Liter of bluegreen algae (blue-green algae [1]; 8/1 post-treatment): 1.8 × 10^5 Cells/Liter
Cells/Liter of bluegreen algae (blue-green algae [1]; 8/6 post-treatment): 1.0 × 10^5 Cells/Liter
Cells/Liter of bluegreen algae (blue-green algae [1]; 8/19 post-treatment): 5.4 × 10^5 Cells/Liter
Cells/Liter of bluegreen algae (blue-green algae [1]; 9/6 post-treatment): 3.8 × 10^5 Cells/Liter
Cells/Liter of bluegreen algae (blue-green algae [1]; 9/23 post-treatment): 1.9 × 10^6 Cells/Liter
Cells/Liter of bluegreen algae (blue-green algae [1]; 11/21 post-treatment (normal winter reduction)): 0 Cells/Liter
Cells/Liter of bluegreen algae (blue-green algae [1]; 12/14 post-treatment): 3.0 × 10^4 Cells/Liter
blue-green algae killed (blue-green algae [1]; seven days after treatment): 93%
effect (Haematococcus; 2.5 and 7.5 ppm, after seven days): stimulated
cells/ml (Haematococcus; 2.5 ppm): 23000 cells/ml
cells/ml (Haematococcus; 7.5 ppm): 52000 cells/ml
fish survival (bluegill fingerlings): All bluegills survived
cells/ml (Tribonema; 2.5 ppm, 13 days after innoculation): 5885 cells/ml
cells/ml (Tribonema; 2.5 ppm, 20 days after innoculation): 10510 cells/ml
cells/ml (Tribonema; 7.5 ppm, 13 days after innoculation): 5335 cells/ml
cells/ml (Tribonema; 7.5 ppm, 20 days after innoculation): 10295 cells/ml
reduction in numbers (Tribonema; both 2.5 ppm and 7.5 ppm, after thirteen days): 55%
reduction in numbers (Tribonema; both concentrations (2.5 and 7.5 ppm), after twenty days): 27%
Cells/liter bluegreen algae (blue-green algae [2]; 5/26/81 B post-treat, 4 p.m., Deep, prevalent Mic): 4.2 × 10^5 Cells/liter
Cells/liter bluegreen algae (blue-green algae [2]; 5/26/81 C post-treat, 4 p.m., Shallow, prevalent Ped): 0 Cells/liter
Cells/liter bluegreen algae (blue-green algae [2]; 5/27/81 D, 9:40 p.m., Deep, prevalent Ped): 1.18 × 10^4 Cells/liter
Cells/liter bluegreen algae (blue-green algae [2]; 5/27/81 E, 9:40 p.m., Shallow, prevalent Ped): 0 Cells/liter
Cells/liter bluegreen algae (blue-green algae [2]; 5/28/81 F, 7 a.m., prevalent Ped): 5.9 × 10^3 Cells/liter
Cells/liter bluegreen algae (blue-green algae [2]; 5/28/81 G, 11 a.m., prevalent Ped): 0 Cells/liter
blue-green algae after treatment (blue-green algae [2]; after two days): essentially no blue-green algae present
presence of Rhizochrysis (Rhizochrysis): completely absent
cells/ml (Cylindrospermum; 2.5 ppm): 2500 cells/ml
cells/ml (Cylindrospermum; 7.5 ppm): 1770 cells/ml
inhibition of growth at 2.5 ppm (Cylindrospermum; [5]): 60%
inhibition of growth at 7.5 ppm (Cylindrospermum; [5]): 72%
cells/ml (Lyngbya; 2.5 ppm): 2340 cells/ml
cells/ml (Lyngbya; 7.5 ppm): 2010 cells/ml
inhibition of growth at 2.5 ppm (Lyngbya; [5]): 31%
inhibition of growth at 7.5 ppm (Lyngbya; [5]): 40%
taste or odor of cooked fish (juvenile channel catfish; 10 ppm, samples February through June, 1981): no taste or odor problems
health of juvenile catfish (juvenile channel catfish; in vivo): fed and otherwise appeared healthy
Chlorophyll a (Chlorophyll a; [4]): .000 absorbance at 663 nm
Chlorophyll a (Chlorophyll a; 8/1 post-treatment): .064 absorbance at 663 nm
Chlorophyll a (Chlorophyll a; 8/6 post-treatment): .000 absorbance at 663 nm
Chlorophyll a (Chlorophyll a; 8/19 post-treatment): .002 absorbance at 663 nm
Chlorophyll a (Chlorophyll a; 9/6 post-treatment): .240 absorbance at 663 nm
Cells/liter green algae (green algae; 6/10/81): 3.0 × 10^3 Cells/liter
Cells/liter green algae (green algae; 6/12/81): 1.4 × 10^3 Cells/liter
Cells/liter green algae (green algae; 6/22/81): 3.5 × 10^5 Cells/liter
Cells/liter bluegreen algae (blue-green algae [3]; 6/10/81, prevalent Osc, Mic): 2.8 × 10^6 Cells/liter
Cells/liter bluegreen algae (blue-green algae [3]; 6/12/81, prevalent Osc): 1.3 × 10^6 Cells/liter
Cells/liter bluegreen algae (blue-green algae [3]; 6/22/81, prevalent Ped): 1.2 × 10^4 Cells/liter
predominant alga after treatment (blue-green algae [3]; June 22): Pediastrum with isolated fragments of Oscillatoria filaments
earthy, musty taste and odor of sample fish (Channel catfish): lost all of the earthy, musty taste and odor
